Data: patent publication US20260256771A1, “GALUNISERTIB FOR USE IN THE TREATMENT OF ANDROGENIC ALOPECIA” (SAÚDE VIÁVEL, S.A., priority 2022, published 2026)

What was measured:
[1] = tested on: β-catenin; test: Immunohistochemistry of cryo-sectioned HFOCs: β-catenin; type: cell-based, human; details: DP adjacent epithelial compartment; Galunisertib 48 h vs untreated
Description: (§1) Hair growth percentages is normalized to day 0.
(§2) FIG. 6. Galunisertib improves the WNT signaling in the bulb epithelial compartment. a) Representative IHC images of tissue sections of HFOCs with and without Galunisertib and stained for LEF1 (red) and β-catenin (green). Nuclei were counterstained with DAPI (blue). Scale bar, 100 μm. b,e) Adjusted intensity levels of LEF1 and β-catenin per DP and HB (bulb epithelium) areas, as measured in tissue sections from HFOCs with and without Galunisertib. All values are mean±SD of HFOCs established from n=4 donors (n>8 HFs per condition). ns p≥0.05, *p≤0.05 by unpaired t-test.
(§3) For immunohistochemistry, 2-day HFOCs are used for immunohistochemistry analysis. Briefly, HFs were embedded on a drop of OCT and stored at −80° C. 8 μm cryosections are air-dried and fixed in 4% PFA (for TGFβ2, cleavage Caspase 3, p-SMAD2 and KI67 immunostainings) or cold acetone (for LEF1 and β-catenin immunostaining). Following 2×5 min rinse with PBS, microsections are permeabilized 2× for 10 min with PBS+0.3% Triton X 100 (PBS-T) and then blocked with PBS+10% fetal bovine serum (FBS) for 1 hour at room temperature. Antibodies are diluted in PBS-T+1% FBS and incubation done overnight at 4° C. […]

[2] = tested on: phosphorylated SMAD2 (p-SMAD2); test: Western blot of phospho-SMAD2 in hair bulbs of HFOCs; type: cell-based, human; details: HFOCs treated with DHT or DHT+galunisertib for 72 h
Method: For western blot, hair bulbs are dissected from HFOCs treated with DMSO, DHT and Galunisertib for 72 h. Upon rinse in PBS, hair bulbs are lysed in Laemmli buffer (without bromophenol blue) with Halt Protease Inhibitor Cocktail and Halt Phosphatase Inhibitor Cocktail, and lysates are sonicated. Lysates from 10 hair bulbs are used for each condition tested. Total extracts are then loaded in SDS-polyacrylamide gels and transferred onto nitrocellulose membranes for western blot analysis. Membranes are blocked during 1 h with TBS+5% BSA. Primary and secondary antibodies are diluted in TBS+2% BSA accordingly to Supplementary Table 1. Signal is detected using Clarity Western ECL Substrate reagent. A GS-800 calibrated densitometer with Quantity One 1-D Analysis Software 4.6 (Bio-Rad Laboratories) is used for quantitative analysis of protein levels.
(§4) In addition, only anagen hair follicles are used.
as §1

[3] = tested on: Ki67 proliferation marker; test: Ki67 immunohistochemistry of mouse dorsal skin (hair germ); type: in vivo
Method: (§5) FIG. 8. Galunisertib increases anagenic hair follicle growth. a) Hematoxilin-eosin staining of transversal paraffin sections of the dorsal skin of mice treated with vehicle (control), galunisertib (10 μM and 100 μM) or minoxidil at days 0, 5, 7, 14, 16 and 18 of treatment. Scale bar, 500 μm. b) Number of hair follicles per field view and c) number of hair follicles per field view in the subcutaneous layer at different timepoints along the experiment. d) Ki67 immunostaining of longitudinal paraffin sections of the dorsal skin of mice treated with vehicle (control), galunisertib (10 μM and 100 μM) or minoxidil at days 5, 7 and 14. Scale bar, 200 μm. e) Number of Ki67-positive cells in the hair bulb at days 5, 7 and 14. N≥3 animals per timepoint per condition were analyzed, and N≥4 field views were quantified per animal. Values are mean±SD. *p<0.05; **p<0.01 by Student's t-test.
For histology and immunohistochemistry, dorsal skin from the depilated region is collected from mice at different timepoints across the experiment (days 0, 5, 7, 14 and 18) and fixed in 10% buffered formalin, imbedded in paraffin and sectioned along the transversal and longitudinal plan of the hair follicles (3 μm sections). Standard protocol is used for hematoxylin and eosin staining. […]

[4] = tested on: TGFβ2; test: qRT-PCR of TGFβ transcripts in dermal papilla isolated from HFOCs; type: cell-based, human; details: Galunisertib-treated HFOCs (10 μM, 48 h)
Description: Concentration and purity are ascertained in a NanoDrop spectrophotometer.
as §4, §1

[5] = tested on: LEF1; test: Immunohistochemistry of cryo-sectioned HFOCs: LEF1; type: cell-based, human; details: Galunisertib 48 h vs untreated
Description: as §1, §2, §3

[6] = tested on: C57BL/6 depilated male mice; test: Histology (hematoxylin-eosin) of dorsal skin: number of hair follicles; type: in vivo, mouse
Method: as §5
For histology and immunohistochemistry, dorsal skin from the depilated region is collected from mice at different timepoints across the experiment (days 0, 5, 7, 14 and 18) and fixed in 10% buffered formalin, imbedded in paraffin and sectioned along the transversal and longitudinal plan of the hair follicles (3 μm sections). Standard protocol is used for hematoxylin and eosin staining. For immunohistochemistry, slides are deparaffinized, then antigen retrieval is performed using HistoVT One (#06380-05, Nacalai Tesque Inc.) for 40 min in a steamer, following 20 min of cooling at room temperature (RT). After washing with TBS-0.01% Tween (TBS-T), peroxidase is blocked using Bloxall (#SP-6000, Vector Laboratories Inc.) for 10 min. Slides are then washed with TBS-T, and blocked using 2.5% Normal Horse Serum (#MP7500, Impress universal kit, Vector Laboratories Inc.) for 20 min. Following this, slides are incubated with rabbit anti-Ki67 antibody (D3B5) in 0.25% Normal Horse Serum overnight at 4° C. Next day, after thoroughly washing with TBS-T, the slides are incubated with a secondary anti-mouse/anti-rabbit antibody (#MP7500, Impress universal kit, Vector Laboratories Inc.) for 45 min RT. Impact DAB (#SK-4105, Vector Laboratories Inc.) are used to develop the slides, followed by dehydration and mounting with Entellan (#1.07961.0100, Millipore) following standard procedures.

## Cc1cccc(-c2nn3c(c2-c2ccnc4ccc(C(N)=O)cc24)CCC3)n1 [Galunisertib]
[1]
  β-catenin intensity levels: significantly enhances
[2]
  canonical TGFβ signaling activation (phospho-SMAD2 protein levels): blocks TGFβ activation
[3]; day 7
  Ki67-positive cells in the hair germ, comparison with minoxidil: more effective than minoxidil
[3]; days 5, 7 and 14 post-treatment, vs vehicle treatment
  number of Ki67-positive cells in the hair germ: increased number of Ki67-positive cells
[4]
  TGFβ2 gene expression in the DP: inhibit TGFβ2 gene expression
[5]; bulb epithelium
  LEF1 levels in the bulb epithelium: increased levels
[5]; dermal papilla
  LEF1 levels in the DP: not significantly upregulated
[6]; day 5, vs vehicle
  number of HFs within the subcutaneous layer (anagenic HFs): increased number of HFs
[6]; day 5 to day 14
  number of anagenic HFs: increased number of anagenic HFs
[6]; similar timing in all conditions
  catagen onset in mice: not to be delayed
[6]; similarly to minoxidil, but more efficiently
  anagenic hair growth (overall): improves anagenic hair growth
[6]; transversal HF sections, day 7 to day 14, vs control vehicle treatment
  number of HF (per field view): significant increase in the number of HF
[6]; until day 14
  persistence of the increased number of anagenic HFs: perdures until day 14
